Here are results for 31 compounds from US20090069300A1, “ISOQUINOLINYL AND ISOINDOLINYL DERIVATIVES AS HISTAMINE-3 ANTAGONISTS” (Wyeth, priority 2007, published 2009).

SMILES strings stand for the structures. Counter-ions that a name gives are not always drawn.

T1 sequence (Q9Y5N1 whole entry): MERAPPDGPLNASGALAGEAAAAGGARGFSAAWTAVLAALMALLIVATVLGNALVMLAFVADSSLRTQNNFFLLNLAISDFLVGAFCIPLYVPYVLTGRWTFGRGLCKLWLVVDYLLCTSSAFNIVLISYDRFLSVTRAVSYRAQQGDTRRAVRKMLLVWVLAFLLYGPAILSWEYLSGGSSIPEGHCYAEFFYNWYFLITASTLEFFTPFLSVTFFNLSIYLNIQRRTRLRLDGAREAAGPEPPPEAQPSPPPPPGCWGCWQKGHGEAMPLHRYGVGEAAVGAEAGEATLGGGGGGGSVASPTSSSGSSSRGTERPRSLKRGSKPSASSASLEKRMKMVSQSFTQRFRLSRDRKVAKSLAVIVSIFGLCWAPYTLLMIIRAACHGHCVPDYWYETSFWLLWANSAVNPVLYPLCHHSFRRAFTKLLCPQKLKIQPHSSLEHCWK

Tested on in the first series: not given
Assay: not given
Details: not given
`CNC(=O)c1ccc(-c2ccc3c(c2)CCN(CCCN2CCCC2)C3=O)cc1` (as salt: hydrochloride) [Example 141, N-methyl-4-[1-oxo-2-(3-pyrrolidin-1-ylpropyl)-1,2,3,4-tetrahydroisoquinolin-6-yl]benzamide]: the melting point (usually the temperature of the solid-liquid transition) lay in the range of 158 to 159 °C. On the same count and under the same terms, the result for `C[C@@H]1CCCN1CCN1CCc2cc(C(=O)N3CCCCCC3)ccc2C1=O` (as salt: hydrochloride) [Example 144, 6-(azepan-1-ylcarbonyl)-2-{2-[(2R)-2-methylpyrrolidin-1-yl]ethyl}-3,4-dihydroisoquinolin-1(2H)-one] reads 192 to 193 °C; that for `C[C@@H]1CCCN1CCN1CCc2cc(C(=O)NC3CCC3)ccc2C1=O` (as salt: hydrochloride) [Example 145, N-cyclobutyl-2-{2-[(2R)-2-methylpyrrolidin-1-yl]ethyl}-1-oxo-1,2,3,4-tetrahydroisoquinoline-6-carboxamide], 214 to 215 °C.

`C[C@@H]1CCCN1CCN1CCc2cc(C(=O)NC3CCCCC3)ccc2C1=O` (as salt: hydrochloride) [Example 147, N-cyclohexyl-2-{2-[(2R)-2-methylpyrrolidin-1-yl]ethyl}-1-oxo-1,2,3,4-tetrahydroisoquinoline-6-carboxamide] gave a melting point of 140 to 141 °C. For `C[C@@H]1CCCN1CCN1CCc2cc(C(=O)NC3Cc4ccccc4C3)ccc2C1=O` (as salt: hydrochloride) [Example 148, N-(2,3-dihydro-1H-inden-2-yl)-2-{2-[(2R)-2-methylpyrrolidin-1-yl]ethyl}-1-oxo-1,2,3,4-tetrahydroisoquinoline-6-carboxamide], the melting point is 145 to 146 °C. On the same count and under the same terms, then `C[C@@H]1CCCN1CCN1CCc2cc(C(=O)NC3CCCC3)ccc2C1=O` (as salt: hydrochloride) [Example 149, N-cyclopentyl-2-{2-[(2R)-2-methylpyrrolidin-1-yl]ethyl}-1-oxo-1,2,3,4-tetrahydroisoquinoline-6-carboxamide], with 219 to 220 °C; and `C[C@@H]1CCCN1CCN1CCc2cc(C(=O)N3CCCC3)ccc2C1=O` (as salt: hydrochloride) [Example 151, 2-{2-[(2R)-2-methylpyrrolidin-1-yl]ethyl}-6-(pyrrolidin-1-ylcarbonyl)-3,4-dihydroisoquinolin-1(2H)-one], with 166 to 167 °C; and `C[C@@H]1CCCN1CCN1CCc2cc(C(=O)N3Cc4ccccc4C3)ccc2C1=O` (as salt: hydrochloride) [Example 152, 6-(1,3-dihydro-2H-isoindol-2-ylcarbonyl)-2-{2-[(2R)-2-methylpyrrolidin-1-yl]ethyl}-3,4-dihydroisoquinolin-1(2H)-one], with 109 to 110 °C. `O=C(c1ccc2c(c1)CCN(CCN1CCCC1)C2=O)N1CCCCC1` (as salt: hydrochloride) [Example 155, 6-(piperidine-1-carbonyl)-2-(2-(pyrrolidin-1-yl)ethyl)-3,4-dihydroisoquinolin-1(2H)-one] had a melting point of 144 to 147 °C. `O=C(c1ccc2c(c1)CCN(CCN1CCCC1)C2=O)N1Cc2ccccc2C1` (as salt: hydrochloride) [Example 156, 6-(isoindoline-2-carbonyl)-2-(2-(pyrrolidin-1-yl)ethyl)-3,4-dihydroisoquinolin-1(2H)-one] registered a melting point of 220 to 221 °C.

For `C[C@@H]1CCCN1CCN1CCc2cc(-c3ccc4c(c3)CCNC4=O)ccc2C1=O` (as salt: hydrochloride) [Example 157, (R)-2-(2-(2-methylpyrrolidin-1-yl)ethyl)-3,3′,4,4′-tetrahydro-6,6′-biisoquinoline-1,1′(2H,2′H-dione hydrochloride], the melting point lay in the range of 272 to 273.5 °C. Regarding `CN1CCc2cc(-c3ccc4c(c3)CCN(CCN3CCCC3)C4=O)ccc2C1=O` (as salt: hydrochloride) [Example 158, 2-methyl-2′-(2-(pyrrolidin-1-yl)ethyl)-3,3′,4,4′-tetrahydro-6,6′-biisoquinoline-1,1′(2H,2′H)-dione hydrochloride], the melting point lay within 225 to 226 °C. Same read-out and setting: then `C[C@@H]1CCCN1CCN1CCc2cc(N3CCCCC3)ccc2C1=O` (as salt: hydrochloride) [Example 161, 2-{2-[(2R)-2-methylpyrrolidin-1-yl]ethyl}-6-piperidin-1-yl-3,4-dihydroisoquinolin-1(2H)-one], with above 225 °C. As to `O=C1c2ccc(N3CCCCC3)cc2CCN1CCN1CCCC1` (as salt: hydrochloride) [Example 162, 6-(piperidin-1-yl)-2-(2-(pyrrolidin-1-yl)ethyl)-3,4-dihydroisoquinolin-1(2H)-one], the melting point lay within 245 to 246 °C. On the same count and under the same terms, then `O=C1c2ccc(N3CCCCC3)cc2CCN1CCN1CCCCC1` (as salt: hydrochloride) [Example 163, 6-(piperidin-1-yl)-2-(2-(piperidin-1-yl)ethyl)-3,4-dihydroisoquinolin-1(2H)-one], with 245 to 246 °C; and `O=C1c2ccc(N3CCCCC3)cc2CCN1CCN1CCCCCC1` (as salt: hydrochloride) [Example 164, 2-(2-(azepan-1-yl)ethyl)-6-(piperidin-1-yl)-3,4-dihydroisoquinolin-1(2H)-one], with 229 to 231 °C. The same measure, in the same setting: then `C[C@@H]1CCCN1CCN1CCc2cc(N3CCCC3)ccc2C1=O` (as salt: hydrochloride) [Example 165, (R)-2-(2-(2-methylpyrrolidin-1-yl)ethyl)-6-(pyrrolidin-1-yl)-3,4-dihydroisoquinolin-1(2H)-one], with 182 to 183 °C; and `C[C@@H]1CCCN1CCN1CCc2cc(N3CCCCCC3)ccc2C1=O` (as salt: hydrochloride) [Example 166, (R)-6-(azepan-1-yl)-2-(2-(2-methylpyrrolidin-1-yl)ethyl)-3,4-dihydroisoquinolin-1(2H)-one], with 182 to 184 °C; and `NC(=O)c1ccc(-c2ccc3c(c2)CCN(CCN2CCCC2)C3)cc1` (as salt: hydrochloride) [Example 180, 4-[2-(2-pyrrolidin-1-ylethyl)-1,2,3,4-tetrahydroisoquinolin-6-yl]benzamide], with 262 to 264 °C. `CNC(=O)c1ccc(-c2ccc3c(c2)CCN(CCN2CCCC2)C3)cc1` (as salt: hydrochloride) [Example 181, N-methyl-4-[2-(2-pyrrolidin-1-ylethyl)-1,2,3,4-tetrahydroisoquinolin-6-yl]benzamide]: the melting point lay in the range of 280 to 281 °C. Take `CCNC(=O)c1ccc(-c2ccc3c(c2)CCN(CCN2CCCC2)C3)cc1` (as salt: hydrochloride) [Example 182, N-ethyl-4-[2-(2-pyrrolidin-1-ylethyl)-1,2,3,4-tetrahydroisoquinolin-6-yl]benzamide]: the melting point was in the range of 266 to 268 °C.

Turning to `CN(C)C(=O)c1ccc(-c2ccc3c(c2)CCN(CCN2CCCC2)C3)cc1` (as salt: hydrochloride) [Example 183, N,N-dimethyl-4-[2-(2-pyrrolidin-1-ylethyl)-1,2,3,4-tetrahydroisoquinolin-6-yl]benzamide], the melting point is 248 to 250 °C. Same read-out and setting: then `O=C(c1ccc(-c2ccc3c(c2)CCN(CCN2CCCC2)C3)cc1)N1CCCC1` (as salt: hydrochloride) [Example 184, 6-[4-(pyrrolidin-1-ylcarbonyl)phenyl]-2-(2-pyrrolidin-1-ylethyl)-1,2,3,4-tetrahydroisoquinoline], with 241 to 242 °C. On to `O=C(c1ccc(-c2ccc3c(c2)CCN(CCN2CCCC2)C3)cc1)N1CCCCC1` (as salt: hydrochloride) [Example 185, 6-[4-(piperidin-1-ylcarbonyl)phenyl]-2-(2-pyrrolidin-1-ylethyl)-1,2,3,4-tetrahydroisoquinoline], for which the melting point is 270 to 272 °C.

Take `O=C(c1ccc(-c2ccc3c(c2)CCN(CCN2CCCC2)C3)cc1)N1CCOCC1` (as salt: hydrochloride) [Example 186, 6-[4-(morpholin-4-ylcarbonyl)phenyl]-2-(2-pyrrolidin-1-ylethyl)-1,2,3,4-tetrahydroisoquinoline]: the melting point is 260 to 261 °C. Same read-out and setting: then `O=C1c2ccc(-n3ncc4ccccc43)cc2CCN1CCN1CCCC1` [Example 36, 6-(1H-indazol-1-yl)-2-(2-(pyrrolidin-1-yl)ethyl)-3,4-dihydroiso-quinolin-1(2H)-one hydrochlroride], with 185 to 186 °C. The same measure, in the same setting: then `O=C(NC1CCCC1)c1ccc(-c2ccc3c(c2)CCN(CCN2CCCC2)C3=O)cc1` [Example 55, N-cyclopentyl-4-[1-oxo-2-(2-pyrrolidin-1-ylethyl)-1,2,3,4-tetrahydroisoquinolin-6-yl]benzamide], with 258 to 260 °C; and `CNC(=O)c1ccc(Oc2ccc3c(c2)CCN(CCN2CCCC2)C3=O)cc1` [Example 92, N-methyl-4-{[1-oxo-2-(2-pyrrolidin-1-ylethyl)-1,2,3,4-tetrahydroisoquinolin-6-yl]oxy}benzamide], with 235 to 236 °C; and `CCNC(=O)c1ccc(Oc2ccc3c(c2)CCN(CCN2CCCC2)C3=O)cc1` [Example 93, N-ethyl-4-{[1-oxo-2-(2-pyrrolidin-1-ylethyl)-1,2,3,4-tetrahydroisoquinolin-6-yl]oxy}benzamide], with 215 to 216 °C. The compound `Fc1ccc(-c2ccc3c(c2)CCN(CCN2CCCC2)C3)cc1` [Example 177] registered a melting point of 250 to 251 °C.

In turn, `c1ccc(-c2ccc3c(c2)CCN(CCN2CCCC2)C3)cc1` [Example 178] came in with a melting point of 268 to 270 °C.

Another series addresses T1, Human Histamine H3 Receptor (Homo sapiens, UniProt Q9Y5N1).
T1 construct: expressed in transfected cells; host or cells: HEK293T (stably transfected; membranes prepared from the cells)
In words: Methyl histamine binding in human histamine H3 receptor cell line. The following applies: read-out: H3 Binding Ki. In short, it runs like this:
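Radioligand binding on membranes (10 μg/well) from a human H3 receptor cell line, 1 nM radioligand, 1 h at 30° C. in 50 mM Tris pH 7.5. Nonspecific binding defined with 10 uM clobenpropit, followed by filtration and scintillation counting. IC50 from four-parameter fit, converted to Ki by Cheng-Prusoff.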
Take `O=C1c2ccc(-n3ncc4ccccc43)cc2CCN1CCN1CCCC1` [Example 36, 6-(1H-indazol-1-yl)-2-(2-(pyrrolidin-1-yl)ethyl)-3,4-dihydroiso-quinolin-1(2H)-one hydrochlroride]: the Ki (as a rule, a measure of affinity in units of concentration, obtained from inhibition or displacement) is below 10 nM. In the case of `O=C(NC1CCCC1)c1ccc(-c2ccc3c(c2)CCN(CCN2CCCC2)C3=O)cc1` [Example 55, N-cyclopentyl-4-[1-oxo-2-(2-pyrrolidin-1-ylethyl)-1,2,3,4-tetrahydroisoquinolin-6-yl]benzamide], the Ki is below 10 nM. Regarding `CNC(=O)c1ccc(Oc2ccc3c(c2)CCN(CCN2CCCC2)C3=O)cc1` [Example 92, N-methyl-4-{[1-oxo-2-(2-pyrrolidin-1-ylethyl)-1,2,3,4-tetrahydroisoquinolin-6-yl]oxy}benzamide], the Ki lay in the range of 10.1 to 25 nM.

As for `CCNC(=O)c1ccc(Oc2ccc3c(c2)CCN(CCN2CCCC2)C3=O)cc1` [Example 93, N-ethyl-4-{[1-oxo-2-(2-pyrrolidin-1-ylethyl)-1,2,3,4-tetrahydroisoquinolin-6-yl]oxy}benzamide], the Ki was below 10 nM.
